Columns and labels:
[1] = tested on: muscarinic cholinergic receptors; test: interaction with muscarinic cholinergic receptors; format: binding
I-adrenerigic receptors = test: interaction with I-adrenergic receptors; format: binding
[2] = in vivo; cited from earlier work

Compound: CCOc1ccccc1OC(c1ccccc1)C1CNCCO1 (stereo not shown) [Reboxetine]
- interaction with muscarinic cholinergic receptors [1]: without showing any appreciable interaction
- interaction with I-adrenerigic receptors (I-adrenerigic receptors): without showing any appreciable interaction
- effect in the 8-OH-DPAT hypothermia test [2]: ineffective
- dopamine uptake inhibitory activity (dopamine uptake): no dopamine uptake inhibitory activity
- norepinephrine uptake inhibitory activity (norepinephrine uptake): highly selective norepinephrine uptake inhibitor
- serotonin uptake inhibitory activity (serotonin uptake): only marginal
- monoamine oxidase (MAO) inhibitory activity (monoamine oxidase (MAO)): devoid of monoamine oxidase (MAO) inhibitory activity
